# What was measured:
# [1] = tested on: KPL-4 human breast carcinoma xenograft; experiment: Antitumor activity in KPL-4 orthotopic xenograft in athymic nude mice, combination with pertuzumab (Example 2); type: in vivo; settings: monotherapy 3, 4 or 6 mg/kg; day 21
# Experimental: The KPL-4 human breast carcinoma cell line was kindly donated by Prof. Kurebayashi, Kawasaki Medical Center. The cells were cultured in Dulbecco's MEM (Sigma Chemical Co.) supplemented with 5% (v/v) fetal bovine serum (Roche Diagnostics).
# (§1) One hundred (100) 5-week-old female athymic nude mice (BALB/c nu/nu) were purchased from Charles River Japan, Inc. (Yokohama, Japan). The mice were housed in an air-conditioned room (temperature 22±2° C., relative humidity 55±10%) under 12 h light/dark cycles. The mice were given sterilized CE-2 and tap water with 25μg/mL gentamycin ad libitum. […]
# (§2) The In vivo evaluation procedure for anticancer drugs was based on methods described by Plowman, et al. (1997) for xenograft models. […] The tumor volume and body weight of each mouse were measured twice a week. […] One week after the final injection, tumor growth inhibition (TGI) was calculated using the formula (1-T/C)×100 (%), where T (treated group) and C (control group) represent the mean tumor volume change. ED50 values were calculated from values of tumor growth inhibition on day 21 using the XL fit program. […]
# Packaged software (SAS preclinical package version 5.0, SAS Institute Japan, Ltd.) was used for the statistical analysis. […] ED50s were calculated from values of tumor growth inhibition percentage using XL fit program #509 (MS Excel Add-In: XLfit3 Version 3.0.5 Build 12, ID Business Solutions Ltd.)
# [2] = tested on: MAXF-401 human breast carcinoma xenograft; experiment: Antitumor activity in MAXF-401 subcutaneous xenograft in athymic nude mice, combination with capecitabine (Example 3); type: in vivo; settings: monotherapy 3, 4 or 6 mg/kg; one week after final injection; 2.5% DMSO control
# Experimental: The MAXF-401 human breast carcinoma cell line was obtained from Prof Fiebig (University of Freiburg, Germany). This cell line was maintained in mice; the tumor fragments were implanted subcutaneously and serially passaged in mice prior to use.
# as §1
# as §2, with “The in vivo evaluation” for “The In vivo evaluation”, “based on the methods described” for “based on methods described”
# Packaged software (SAS preclinical package version 5.0,SAS Institute Japan, Ltd.) was used for the statistical analysis. […] ED50s were calculated from values of tumor growth inhibition percentage using XL fit program #509 (MS Excel Add Version 3.0.5 Build -In: XLfit3 12, ID Business Solutions Ltd.)
compound,measurement,setting,value
"CC[C@H](C)[C@@H]([C@@H](CC(=O)N1CCC[C@H]1[C@H](SC)[C@@H](C)C(=O)N(C)CCc1cccc(O)c1)OC)N(C)C(=O)[C@@H](NC(=O)[C@H](C(C)C)N(C)C)C(C)C [compound of formula (I-A), N-[1-({1-sec-Butyl-4-[2-(2-{[2-(3-hydroxy-phenyl)-ethyl]-methyl-carbamoyl}-1-methylsulfanyl-propyl)-pyrrolidin-1-yl]-2-methoxy-4-oxo-butyl}-methyl-carbamoyl)-2-methyl-propyl]-2-dimethylamino-3-methyl-butyramide]",volume of tumor in comparison with control,[1],decreased strongly
same,volume of tumor in comparison with control,[2],decreased significantly

# From patent US20060292158A1, “Method for the treatment of cancer using a novel pharmaceutical composition containing at least one dolastatin 10 derivative” (priority 2004, published 2006)
